Measured values as given in ChEMBL document CHEMBL3885881, “DrugMatrix”.

Organism: Rattus norvegicus
Assay: DrugMatrix - Regimen: Daily Repeat
Type: toxicity, organism-based, Sprague-Dawley
Parameters: regimen Daily Repeat, gender Male, age 6-8 weeks
Conditions: in vivo, po, route oral GAVAGE, vehicle 100 % WATER; for ABSOLUTE BASOPHIL / ABSOLUTE EOSINOPHIL / ABSOLUTE LYMPHOCYTE / ABSOLUTE MONOCYTE / ABSOLUTE SEGMENTED NEUTROPHIL / BASOPHIL / EOSINOPHIL / ERYTHROCYTE COUNT / HEMATOCRIT / HEMOGLOBIN / LEUKOCYTE COUNT / LYMPHOCYTE / MEAN CORPUSCULAR HEMOGLOBIN / MEAN CORPUSCULAR HEMOGLOBIN CONCENTRATION / MEAN CORPUSCULAR VOLUME / MONOCYTE / NEUTROPHIL / NUCLEATED RED BLOOD CELLS / PLATELET COUNT: tissue Blood; for ALANINE AMINOTRANSFERASE / ALBUMIN / ALKALINE PHOSPHATASE / ASPARTATE AMINOTRANSFERASE / BLOOD UREA NITROGEN / CARBON DIOXIDE / CHLORIDE / CHOLESTEROL / CREATINE PHOSPHOKINASE / CREATININE / GLUCOSE / LACTATE DEHYDROGENASE / LIPASE / PHOSPHORUS / POTASSIUM / SODIUM / TOTAL BILIRUBIN / TOTAL PROTEIN / URIC ACID: tissue Plasma
[1] = 30 mg/kg, 120 h, dose level Low, time 5 day
[2] = 2000 mg/kg, 72 h, dose level High, time 3 day
[3] = 2000 mg/kg, 120 h, dose level High, time 5 day

CC(C)NCC(O)c1ccc(NS(C)(=O)=O)cc1 (centres undefined) [SOTALOL]
ABSOLUTE BASOPHIL [1]: 0 CELLS/uL
ABSOLUTE EOSINOPHIL [1]: 80.67 CELLS/uL
ABSOLUTE LYMPHOCYTE [1]: 11724 CELLS/uL
ABSOLUTE MONOCYTE [1]: 98 CELLS/uL
ABSOLUTE SEGMENTED NEUTROPHIL [1]: 997.33 CELLS/uL
BASOPHIL [1]: 0%
EOSINOPHIL [1]: 0.67%
ERYTHROCYTE COUNT [1]: 5.34 x10E6/uL
HEMATOCRIT [1]: 34.2%
HEMOGLOBIN [1]: 13.43 G/DL
LEUKOCYTE COUNT [1]: 12.9 x10E3/uL
LYMPHOCYTE [1]: 90.67%
MEAN CORPUSCULAR HEMOGLOBIN [1]: 25.17 pg
MEAN CORPUSCULAR HEMOGLOBIN CONCENTRATION [1]: 39.27 G/DL
MEAN CORPUSCULAR VOLUME [1]: 64 fL
MONOCYTE [1]: 0.67%
NEUTROPHIL [1]: 8%
NUCLEATED RED BLOOD CELLS [1]: 0 /100WBC
PLATELET COUNT [1]: 1232.33 x10E3/uL
ALANINE AMINOTRANSFERASE [1]: 48 u/L
ALBUMIN [1]: 4.27 G/DL
ALKALINE PHOSPHATASE [1]: 355 u/L
ASPARTATE AMINOTRANSFERASE [1]: 104.33 u/L
BLOOD UREA NITROGEN [1]: 17 mg/dL
CARBON DIOXIDE [1]: 28.33 mmol/L
CHLORIDE [1]: 105 MEQ/L
CHOLESTEROL [1]: 70.67 mg/dL
CREATINE PHOSPHOKINASE [1]: 193.67 u/L
CREATININE [1]: 0.2 mg/dL
GLUCOSE [1]: 131.67 mg/dL
LACTATE DEHYDROGENASE [1]: 156 u/L
LIPASE [1]: 9.33 u/L
PHOSPHORUS [1]: 11.6 mg/dL
POTASSIUM [1]: 6.59 MEQ/L
SODIUM [1]: 150.53 MEQ/L
TOTAL BILIRUBIN [1]: 0.2 mg/dL
TOTAL PROTEIN [1]: 6.13 G/DL
URIC ACID [1]: 1.17 mg/dL
ABSOLUTE BASOPHIL [2]: 0 CELLS/uL
ABSOLUTE EOSINOPHIL [2]: 0 CELLS/uL
ABSOLUTE LYMPHOCYTE [2]: 13259 CELLS/uL
ABSOLUTE MONOCYTE [2]: 47.67 CELLS/uL
ABSOLUTE SEGMENTED NEUTROPHIL [2]: 926.67 CELLS/uL
BASOPHIL [2]: 0%
EOSINOPHIL [2]: 0%
ERYTHROCYTE COUNT [2]: 5.36 x10E6/uL
HEMATOCRIT [2]: 33.57%
HEMOGLOBIN [2]: 13.17 G/DL
LEUKOCYTE COUNT [2]: 14.23 x10E3/uL
LYMPHOCYTE [2]: 93%
MEAN CORPUSCULAR HEMOGLOBIN [2]: 24.57 pg
MEAN CORPUSCULAR HEMOGLOBIN CONCENTRATION [2]: 39.23 G/DL
MEAN CORPUSCULAR VOLUME [2]: 62.73 fL
MONOCYTE [2]: 0.33%
NEUTROPHIL [2]: 6.67%
NUCLEATED RED BLOOD CELLS [2]: 0 /100WBC
PLATELET COUNT [2]: 1424.33 x10E3/uL
ALANINE AMINOTRANSFERASE [2]: 61 u/L
ALBUMIN [2]: 3.9 G/DL
ALKALINE PHOSPHATASE [2]: 388.67 u/L
ASPARTATE AMINOTRANSFERASE [2]: 106.33 u/L
BLOOD UREA NITROGEN [2]: 14 mg/dL
CARBON DIOXIDE [2]: 21.33 mmol/L
CHLORIDE [2]: 104 MEQ/L
CHOLESTEROL [2]: 57.67 mg/dL
CREATINE PHOSPHOKINASE [2]: 412.33 u/L
CREATININE [2]: 0.15 mg/dL
GLUCOSE [2]: 148 mg/dL
LACTATE DEHYDROGENASE [2]: 629 u/L
LIPASE [2]: 10 u/L
PHOSPHORUS [2]: 11.93 mg/dL
POTASSIUM [2]: 7.54 MEQ/L
SODIUM [2]: 142.93 MEQ/L
TOTAL BILIRUBIN [2]: 0.2 mg/dL
TOTAL PROTEIN [2]: 5.5 G/DL
URIC ACID [2]: 1.8 mg/dL
ABSOLUTE BASOPHIL [3]: 0 CELLS/uL
ABSOLUTE EOSINOPHIL [3]: 0 CELLS/uL
ABSOLUTE LYMPHOCYTE [3]: 13770.67 CELLS/uL
ABSOLUTE MONOCYTE [3]: 100.67 CELLS/uL
ABSOLUTE SEGMENTED NEUTROPHIL [3]: 1095.33 CELLS/uL
BASOPHIL [3]: 0%
EOSINOPHIL [3]: 0%
ERYTHROCYTE COUNT [3]: 5.87 x10E6/uL
HEMATOCRIT [3]: 36.53%
HEMOGLOBIN [3]: 14.37 G/DL
LEUKOCYTE COUNT [3]: 14.97 x10E3/uL
LYMPHOCYTE [3]: 92%
MEAN CORPUSCULAR HEMOGLOBIN [3]: 24.47 pg
MEAN CORPUSCULAR HEMOGLOBIN CONCENTRATION [3]: 39.33 G/DL
MEAN CORPUSCULAR VOLUME [3]: 62.27 fL
MONOCYTE [3]: 0.67%
NEUTROPHIL [3]: 7.33%
NUCLEATED RED BLOOD CELLS [3]: 0.33 /100WBC
PLATELET COUNT [3]: 1192.33 x10E3/uL
ALANINE AMINOTRANSFERASE [3]: 54.33 u/L
ALBUMIN [3]: 4.33 G/DL
ALKALINE PHOSPHATASE [3]: 480.33 u/L
ASPARTATE AMINOTRANSFERASE [3]: 83 u/L
BLOOD UREA NITROGEN [3]: 16.33 mg/dL
CARBON DIOXIDE [3]: 24.33 mmol/L
CHLORIDE [3]: 106 MEQ/L
CHOLESTEROL [3]: 77 mg/dL
CREATINE PHOSPHOKINASE [3]: 259.33 u/L
CREATININE [3]: 0.22 mg/dL
GLUCOSE [3]: 159.33 mg/dL
LACTATE DEHYDROGENASE [3]: 78.67 u/L
LIPASE [3]: 10.33 u/L
PHOSPHORUS [3]: 13.13 mg/dL
POTASSIUM [3]: 6.86 MEQ/L
SODIUM [3]: 148.2 MEQ/L
TOTAL BILIRUBIN [3]: 0.2 mg/dL
TOTAL PROTEIN [3]: 6.13 G/DL
URIC ACID [3]: 1.73 mg/dL
